What was measured:
[1] = target: bile salt export pump (BSEP) (Homo sapiens, UniProt O95342); assay: In vitro inhibition of BSEP activity; assay type: in vitro ADME
CYP3A4 = assay: In vitro enzyme activity / mRNA induction in human hepatocytes; assay type: in vitro ADME
[2] = Example 2 Part D: single- and multiple-dose PK of tucatinib and ONT-993; assay type: in vivo, human; conditions: tucatinib 300 mg BID, Day 10 vs Day 4
From the text: Other noncompartmental PK parameters may be reported.

MATE1 = target: T1, MATE1 (Homo sapiens, UniProt Q96FL8); assay: Inhibition of MATE1 mediated transport of creatinine in transfected MDCK-II cells (Example 3); assay type: in vitro ADME; set-up: expressed in transfected cells; host or cells: MDCK-II; conditions: probe substrate creatinine
T1 sequence (Q96FL8 1-570): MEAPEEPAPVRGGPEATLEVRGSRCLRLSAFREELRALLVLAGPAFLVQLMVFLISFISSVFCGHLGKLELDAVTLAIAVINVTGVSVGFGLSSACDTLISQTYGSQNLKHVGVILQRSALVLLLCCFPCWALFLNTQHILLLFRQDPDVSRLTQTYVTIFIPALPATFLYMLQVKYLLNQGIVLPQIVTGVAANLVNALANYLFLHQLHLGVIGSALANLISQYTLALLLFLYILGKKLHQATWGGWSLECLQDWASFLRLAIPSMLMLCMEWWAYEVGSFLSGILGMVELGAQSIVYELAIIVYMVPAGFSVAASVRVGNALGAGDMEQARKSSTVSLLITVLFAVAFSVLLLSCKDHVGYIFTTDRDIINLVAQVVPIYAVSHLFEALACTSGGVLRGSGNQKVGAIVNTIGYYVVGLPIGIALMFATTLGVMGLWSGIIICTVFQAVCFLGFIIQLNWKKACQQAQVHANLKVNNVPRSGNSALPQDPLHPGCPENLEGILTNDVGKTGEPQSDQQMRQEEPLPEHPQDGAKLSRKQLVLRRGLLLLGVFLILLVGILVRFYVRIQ
Procedure: OAT2, OCT2, OCT3, MATE1, and MATE2-K are the renal transporters identified to transport creatinine.
For this study, MDCK-II were maintained in DMEM with low glucose and 10% FBS. Cells were seeded at 60K±10K cells/well on 96-well, transwell membrane plates approximately 24 hours before transfection. Transport assays were carried out approximately 48 hours after transfection. Cells were transfected and treated to express the transporter of interest or treated with a control vector. The transport of creatinine was determined by radiometric detection.
Net transporter mediated uptake of the substrate by each transporter was calculated as follows: Net Transporter Mediated Substrate Uptake (pmol/min/cm^2)=(Cellular accumulation in the presence of the transporter)−(Mean cellular accumulation in the absence of the transporter.
Percent inhibition was calculated as follows: Percent inhibition=100−(100*(transporter mediated uptake)with inhibition/(transporter mediated uptake)without inhibition)
The following equation was used to determine IC50 values of uptake assays: […]

CYP2C9 = CYP2C9 (Homo sapiens, UniProt P11712); assay: Ki determination in pooled human liver microsomes, diclofenac 4'-hydroxylase (Example 5); assay type: in vitro ADME; set-up: endogenous in cells; host or cells: healthy human subjects, in vivo
Chain of CYP2C9 (P11712 whole entry): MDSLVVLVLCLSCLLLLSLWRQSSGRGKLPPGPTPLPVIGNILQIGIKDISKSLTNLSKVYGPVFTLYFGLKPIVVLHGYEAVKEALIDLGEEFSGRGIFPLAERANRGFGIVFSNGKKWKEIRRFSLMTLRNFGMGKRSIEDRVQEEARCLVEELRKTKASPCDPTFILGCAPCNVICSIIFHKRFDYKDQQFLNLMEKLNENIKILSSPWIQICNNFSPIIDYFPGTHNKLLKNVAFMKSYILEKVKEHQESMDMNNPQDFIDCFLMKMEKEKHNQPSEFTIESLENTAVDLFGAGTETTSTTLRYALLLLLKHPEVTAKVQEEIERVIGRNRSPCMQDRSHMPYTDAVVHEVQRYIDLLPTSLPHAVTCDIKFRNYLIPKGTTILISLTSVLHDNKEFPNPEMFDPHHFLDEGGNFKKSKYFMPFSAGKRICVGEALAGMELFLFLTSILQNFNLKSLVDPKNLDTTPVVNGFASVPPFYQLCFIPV
Procedure: The objective of this study was to evaluate in vitro the Ki of tucatinib of the following human hepatic cytochrome P450 (CYP) enzymes (CYP2C8, CYP2C9, and CYP3A4) and UGT1A1. […] Pooled human liver microsomes (HLM) from 150 individuals (79 males and 71 females) were obtained from BioreclamationIVT (Baltimore, Md.) and stored at approximately −70° C. The microsomes were characterized by the supplier for total protein and selected cytochrome P450 activities. […] The final organic solvent contribution was ≤1%. Incubations were terminated by the addition of chilled acetonitrile containing a stable isotope-labeled internal standard. […] Samples were analyzed by liquid chromatography with tandem mass spectrometry (LC-MS/MS). Analyte concentrations were quantified by LC-MS/MS and interpolated from standard curves of authentic analyte. […] Activities were calculated based on analyte concentration, incubation time, and protein concentration. Enzymatic activity (pmol/minute/mg protein) was expressed as the formation of the analyte per final protein concentration per incubation time. Activity remaining was expressed as the enzymatic activity at each concentration point of the test article normalized by the solvent control mean activity. […]

CYP2C8 = target: T2, CYP2C8 (Homo sapiens, UniProt P10632); assay: Example 2 Part C: effect of strong CYP2C8 inhibitor gemfibrozil on PK of tucatinib; assay type: in vivo; set-up: endogenous in cells; host or cells: healthy human subjects, in vivo; conditions: tucatinib 300 mg single dose in combination with gemfibrozil vs tucatinib alone
T2 sequence (P10632 1-490): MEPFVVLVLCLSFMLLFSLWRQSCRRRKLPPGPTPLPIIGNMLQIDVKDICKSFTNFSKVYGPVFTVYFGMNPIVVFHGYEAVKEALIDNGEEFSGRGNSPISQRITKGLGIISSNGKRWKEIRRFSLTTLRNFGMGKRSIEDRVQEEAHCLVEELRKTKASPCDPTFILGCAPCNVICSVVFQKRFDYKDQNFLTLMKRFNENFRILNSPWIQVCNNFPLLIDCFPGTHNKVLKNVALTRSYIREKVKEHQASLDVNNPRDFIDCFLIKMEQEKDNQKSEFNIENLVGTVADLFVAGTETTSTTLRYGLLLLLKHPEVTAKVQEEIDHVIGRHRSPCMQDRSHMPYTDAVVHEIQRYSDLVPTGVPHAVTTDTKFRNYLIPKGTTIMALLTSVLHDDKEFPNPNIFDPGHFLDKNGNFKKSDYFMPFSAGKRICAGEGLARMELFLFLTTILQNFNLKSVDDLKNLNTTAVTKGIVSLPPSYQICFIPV
Procedure: From Day 3 to Day 8, each subject received single oral doses of 600 mg of gemfibrozil (BID), twice daily (BID). On Day 7, each subject received a single oral dose of 300 mg of tucatinib. […] Other noncompartmental PK parameters may be reported. Additionally, blood samples were collected for determination of trough levels of gemfibrozil prior to morning dosing on the days indicated in FIG. 7.

Chain of bile salt export pump (BSEP) (O95342 whole entry, species assumed): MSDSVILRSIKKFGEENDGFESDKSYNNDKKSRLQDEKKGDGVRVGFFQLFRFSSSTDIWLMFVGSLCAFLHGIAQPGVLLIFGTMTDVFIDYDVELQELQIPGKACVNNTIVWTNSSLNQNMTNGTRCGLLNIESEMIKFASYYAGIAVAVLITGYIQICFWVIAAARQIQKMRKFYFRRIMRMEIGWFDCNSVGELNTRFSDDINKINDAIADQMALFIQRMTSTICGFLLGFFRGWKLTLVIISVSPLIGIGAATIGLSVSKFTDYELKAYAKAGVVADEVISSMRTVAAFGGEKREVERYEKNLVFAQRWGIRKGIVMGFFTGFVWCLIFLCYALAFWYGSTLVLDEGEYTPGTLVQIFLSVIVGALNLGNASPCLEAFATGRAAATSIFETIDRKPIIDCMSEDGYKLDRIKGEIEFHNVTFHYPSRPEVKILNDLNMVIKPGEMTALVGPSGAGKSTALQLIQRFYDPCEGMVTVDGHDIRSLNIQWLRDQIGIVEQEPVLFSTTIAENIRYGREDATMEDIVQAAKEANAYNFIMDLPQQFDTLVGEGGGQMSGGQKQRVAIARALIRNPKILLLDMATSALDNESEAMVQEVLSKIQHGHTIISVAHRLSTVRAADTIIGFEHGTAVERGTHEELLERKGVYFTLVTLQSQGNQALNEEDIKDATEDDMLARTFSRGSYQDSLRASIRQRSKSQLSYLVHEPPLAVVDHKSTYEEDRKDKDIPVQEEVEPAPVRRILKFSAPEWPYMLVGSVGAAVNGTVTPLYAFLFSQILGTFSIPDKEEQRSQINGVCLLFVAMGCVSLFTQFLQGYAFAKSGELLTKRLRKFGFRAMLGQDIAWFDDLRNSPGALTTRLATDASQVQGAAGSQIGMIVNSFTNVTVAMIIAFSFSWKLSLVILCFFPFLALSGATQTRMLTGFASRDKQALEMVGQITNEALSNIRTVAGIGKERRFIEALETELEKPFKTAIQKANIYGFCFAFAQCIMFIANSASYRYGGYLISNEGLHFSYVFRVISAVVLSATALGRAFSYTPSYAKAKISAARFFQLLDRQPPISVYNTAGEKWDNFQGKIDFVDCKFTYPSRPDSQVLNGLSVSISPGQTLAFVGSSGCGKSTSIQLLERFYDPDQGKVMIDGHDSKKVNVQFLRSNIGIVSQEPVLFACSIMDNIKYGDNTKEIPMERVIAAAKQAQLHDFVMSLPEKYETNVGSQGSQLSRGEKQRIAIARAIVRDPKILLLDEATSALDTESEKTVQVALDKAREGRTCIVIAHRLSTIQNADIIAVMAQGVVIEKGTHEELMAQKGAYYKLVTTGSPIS

Cc1cc(Nc2ncnc3ccc(NC4=NC(C)(C)CO4)cc23)ccc1Oc1ccn2ncnc2c1 [tucatinib]
IC50 [1]: 8.48 µM | Induction of in vitro enzyme activity or messenger ribonucleic acid, CYP3A4 (CYP3A4): did not induce | Rac (accumulation ratio) after multiple dosing [2]: 1.85 | IC50 (MATE1): 0.0855 ± 0.0175 µM | Inhibition mechanism, CYP2C9 (CYP2C9): competitive inhibition | Ki (CYP2C9; marker substrate diclofenac): 4.57 µM | Geometric LS mean ratio (90% CI), AUC0-∞ (CYP2C8): 3.04 (2.66, 3.46) | Geometric LS mean ratio (90% CI), AUClast (CYP2C8): 2.99 (2.62, 3.41) | Geometric LS mean ratio (90% CI), Cmax (CYP2C8): 1.62 (1.47, 1.79)
